Data on two molecules can be found in patent publication US20120172375A1, “COMPOUNDS AND METHODS OF PROMOTING OLIGODENDROCYTE PRECURSOR DIFFERENTIATION” (priority 2008, published 2012).

One data set can be described thus: Solubility. Format: physicochemical.
A further data set is described as follows: Hydrophobicity. Format: physicochemical.
The test system of data set [1] is oligodendrocyte progenitors. In words: Primary/secondary screening: oligodendrocyte progenitor morphology changes and Plp-EGFP fluorescence. The data set is classed as cell-based, mouse. Details: key to differentiation scale score (cell morphology): 1: bipolar, undifferentiated; 2: bipolar to tripolar, initiated differentiation; 3: multibranched, differentiated cells; 4: multibranched, differentiated cells showing membranous structures. To be noted: 10 μM, 48 hr. On the procedure: Oligodendrocyte progenitors were generated from embryonic neural progenitors growing in cell aggregates known as neurospheres (Nphs). Nph were prepared from embryos at 14.5 days of gestation obtained from timed pregnant females of either wild type mice or the proteolipid protein-enhanced-green fluorescence protein (Plp-EGFP) transgenic mouse. In brief, after separation of meninges and cerebellum, cerebrum tissue was mechanically triturated with a 1 ml Gilson pipette until total tissue disaggregation was achieved, filtered through a 70 μm cell strainer (Fisher Scientific, Pittsburg, Pa.) and plated in 25 cm^2 plastic culture flasks (2 brains/flask). Nph proliferation media (NPM) was DMEM/F12, B27 neuronal supplement (Gibco, Baltimore, Md.) and 10 ng/ml EGF (Sigma, St. Louis, Mo.). After 48-72 hr, floating Nphs were passaged at a 1:3 ratio in the same medium every 3-4 days. To generate oligodendrocyte progenitors, single cells suspensions were obtained by chemical disgregation with the mouse NeuroCult dissociation kit (StemCell Technologies, Alberta, Canada). The single cell suspension was filtered through a 70 μm cell strainer and plated on 96-well poly-D-Lysine (PDL)-coated plates at a cell density of 1.5×10^4 cells/cm^2. Cells were maintained in NPM supplemented with 10 ng/ml PDGF/bFGF instead of EGF. Bipolar, oligodendrocyte progenitor cells were observed 24 hours after plating. […]
The small molecule library consists of handcrafted drug-like organic molecules with molecular weight in a range of 250-550, dissolved in DMSO at concentration of 5 mg/ml or […]. Their structure and >95% purity have been validated by NMR. […] Oligodendrocyte progenitor differentiation was scored using as 4 scale values as follows: 1: bipolar, undifferentiated; 2: bipolar to tripolar, initiated differentiation; 3: multibranched, differentiated cells; 4: multibranched, differentiated cells showing membranous structures (FIG. 1).
Differentiation induced by selected compounds was further validated by fluorescence microscopy in cells generated from our Plp-EGFP transgenic mouse. Increased fluorescence in treated oligodendrocyte progenitor was indicative of cell maturation and was again scored following the same scale. […] These were analyzed for cell toxicity assays by MTT were yellow 3-(4,5-Dimethylthiazol-2-yl)-2,5-diphenyltetrazolium bromide, a tetrazole (MTT) is reduced to purple formazan in the mitochondria of living cells, showing a solution color change measurable by OD620-590 (Data not shown). Further oligodendrocyte progenitor maturation in response to selected compounds was assessed by induction of myelin protein expression as determined by immunocytochemistry and western blot. […]

In the case of `CC(C)N1CCN(C(=O)COc2ccc(-c3ccccc3)cc2)CC1` [Compound A-7, 1-(Biphenyl-4-yloxy)acetyl-4-isopropylpiperazine], the solubility result in “Solubility” is given as “high”. Besides, the hydrophobicity result in “Hydrophobicity” is on record as “high”. `CCS(=O)(=O)N1CCN(C(=O)COc2ccc(-c3ccccc3)cc2)CC1` [Compound A, 1-[(4-biphenylyloxy)acetyl]-4-(ethylsulfonyl)piperazine]: the “differentiation scale score (cell morphology)” value in data set [1] is listed as 4.
